Measured values: patent publication US20050090522A1 (priority 2001, published 2005)
Where two headings read alike, the source gives them in different places.

Legend:
[1] = Rat IV and PO pharmacokinetic studies; conditions: for CL, iv / clearance: iv dosing at 1 mg/kg; for clearance / AUC(0-t): male, Sprague-Dawley, in vivo; for clearance: iv, 1 mg/kg, CL; for AUC(0-t): po, 5 mg/kg
Method: Rat Pharmacokinetic Studies: For the IV and PO pharmacokinetic studies of compounds in rats, the compound was dissolved in PEG-400/ethanol (90/10) as a solution. Rat. Male Sprague-Dawley rats (300-350 g, Hilltop Lab Animals, Inc., Scottdale, Pa.) with cannulas implanted in the jugular vein were used. The rats were fasted overnight in the PO pharmacokinetic studies. Blood samples of 0.3 ml were collected from the jugular vein in EDTA-containing microtainer tubes (Becton Dickinson, Franklin Lakes, N. J.), and centrifuged to separate plasma. In the IV study, the test compound was delivered at 1 mg/kg as a bolus over 0.5 min (n=3). […] Quantitation of Compounds in Plasma. […] The resulting supernates were separated from the precipitated proteins by centrifugation for 10 minutes and transferred to autosampler vials. Samples were either prepared manually, or with the use of the Tomtec automated liquid handler. An aliquot of 5 μL was injected for analysis. The HPLC system consisted of two Shimadzu LC10AD pumps (Columbia, Md.), a Shimadzu SIL-HTC autosampler (Columbia, Md.), and a Hewlett Packard Series 1100 column compartment (Palo Alto, Calif.). The column was a YMC Pro C18 (2.0×50 mm, 3 μm particles, Waters Co., Milford, Mass.), maintained at 60° C. and a flow rate of 0.3 ml/min. The mobile phase consisted of 10 mM ammonium formate and 0.1% formic acid in water (A) and 100% 10 mM ammonium formate and 0.1% formic acid in methanol (B). […] The mobile phase was then returned to initial conditions and the column re-equilibrated for 1 minute. Total analysis time was 4 minutes. The HPLC was interfaced to a Micromass Quattro LC. Ultra high purity nitrogen was used as the nebulizing and desolvation gas at flow rates of 100 L/hr for nebulization and 1100 L/hr for desolvation. The desolvation temperature was 300° C. and the source temperature was 150° C. Data acquisition utilized selected reaction monitoring (SRM). Ions representing the (M+H)^+ species for the compound and the internal standard were selected in MS 1 and collisionally dissociated with argon at a pressure of 2×10^−3 torr to form specific product ions which were subsequently monitored by MS2.
(§1) For accuracy, the determined measure of viral inhibition is an EC50; but the minimum plasma concentrations which should be maintained in a patient is generally believed to be at least four or five fold higher. […] Lower is better. • 4) Estimating potential exposure in man by measuring parameters such as AUC and rate of clearance by oral and iv dosing in rats. High exposure and low clearance was desired.
The rat model is an initial model used to assess potential for exposure in man.

HIV-1 = HIV-1 single-round infectious luciferase reporter virus (pseudotype) assay in HeLa CD4 CCR5 cells; assay type: cell-based
Summary of the method: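 HeLa CD4 CCR5 cells (5×10^4/well, DMEM + 10% FBS) were treated with compound (final <10 μM) and infected with single-round luciferase reporter virus made in 293 cells, at MOI ~0.01. Luciferase was read 72 h post infection. EC50 came from 10-concentration percent-inhibition curves fitted to a four-parameter logistic model.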

HeLa cells = test: Cytotoxicity assay in HeLa cells (MTT dye reduction, CC50)
Summary of the method: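 HeLa cells expressing CD4 and CCR5, grown in DMEM with 10% FBS, were used for cytotoxicity testing by MTT dye reduction; the text gives no further cytotoxicity conditions. The parallel antiviral assay exposed the same cells to compound at final <10 μM for 72 h.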

[2] = Metabolic stability in pooled human liver microsomes (HLM); conditions: 3 μM drug
Method: Metabolic Stability Studies of compounds in Liver Microsomes. The metabolic stability of compounds were investigated in pooled liver microsomes from humans. The human liver microsomes were obtained from BD Gentest (Lot #16, Woburn, Mass.) with a protein concentration of 20 mg/ml and a total cytochrome P450 (CYP) concentration of 0.55 nmol/mg protein. A stock solution of drug was prepared in acetonitrile at 1 mM. […] The incubation media consisted of potassium phosphate buffer (0.1 M, pH 7.4), liver microsomes (final concentration 0.9 mg/ml), magnesium chloride (0.033 mM), and a NADPH-regenerating system. […] The test compound was pre-incubated in the media for 2 min. The reaction was initiated by the addition of the cofactors. The incubation was carried out at 37° C. for 10 min. The reaction was terminated by drawing an aliquot of 100 μL from the incubation and adding into 200 μL of acetonitrile containing a reference compound as an […] analytical standard. Following vortex-mixing and centrifugation, an aliquot of 10 μL of the supernatant was analyzed by LC/MS.
GUIDELINES can be used to categorized test substances as low, intermediate or highly cleared compounds.
as §1
The stability of compounds were also evaluated to determine metabolic stability when incubated in in vitro preparations of human liver microsomes (HLM). This is one commonly used predictive system for evaluating the potential for human metabolism and projecting clearance rates in man. Compounds with low clearance rates were most desireable.

[3] = Human immunodeficiency virus 1, HeLa-CD4/CCR5, read-out: EC50 Group from TABLE 1, HeLa CD4 CCR5 cells, single-round infectious luciferase reporter virus
[4] = Human immunodeficiency virus 1, HeLa-CD4/CCR5, read-out: EC50 category, HIV-1 single-round reporter virus assay, category 1/2/3 per Table A1 key
[5] = AUC 24 h, oral dosing at 5 mg/kg
[6] = cytotoxicity, Yes = CC50 above 100 uM, No = not
[7] = pooled human liver microsomes, Low/Intermediate/High
[8] = Human immunodeficiency virus 1, HeLa-CD4/CCR5, read-out: EC50 Group from Table 1, Table 2-1, HeLa CD4 CCR5 cells, single-round luciferase reporter virus
[9] = Human immunodeficiency virus 1, HeLa-CD4/CCR5, read-out: EC50 category, initial pseudotype assay, key in Table A1
[10] = HeLa cells, six days with drug, MTT
[11] = 0.9 mg/ml microsomes, 37° C., 10 min

SMILES | EC50 (HIV-1; [3]) | EC50 (HIV-1; [4]) | CC50 > 100 uM (HeLa cells; [6]) | HLM predicted human clearance class [2, 7] | other results
Cc1ccc(-c2nccc3c(C(=O)C(=O)N4CCN(C(=O)c5ccccc5)C[C@H]4C)c[nH]c23)cc1N [Example 3, 1-benzoyl-3-®-methyl-4-[(7-(3-amino-4-methylphenyl)-6-azaindol-3-yl)-oxoacetyl] piperazine] | – | – | – | – | CL, iv [1]: 1.3 ± 4.0 mL/min/kg; AUC 24 h ([1]; oral dosing at 5 mg/kg): 6300 ± 2700 ng·h/mL
COc1ncc(-c2nccc3c(C(=O)C(=O)N4CCN(C(=O)c5ccccc5)C[C@H]4C)c[nH]c23)c(OC)n1 [Example 12, 1-benzoyl-3-®-methyl-4-[(7-(2,4-dimethoxy-pyrimidin-5-yl)-6-azaindol-3-yl)-oxoacetyl]piperazine] | – | – | – | – | CL, iv [1]: 11.9 ± 1.8 mL/min/kg; AUC 24 h ([1]; oral dosing at 5 mg/kg): 4700 ± 1100 ng·h/mL
COc1cnc(-c2cnccn2)c2[nH]cc(C(=O)C(=O)N3CCN(C(=O)c4ccccn4)CC3)c12 [Example 102, 1-picolinoyl-4-[(4-methoxy-7-(pyrazin-2-yl)-6-azaindol-3-yl)-oxoacetyl]piperazine] | < 1 µM | 0.0002 to 1 µM | Yes | Low (0-0.100) | clearance [1]: 12 ± 5.5 mL/min/kg; AUC(0-t) [1, 5]: 6900 ± 1300 ng·h/mL
O=C(C(=O)N1CCN(C(=O)c2ccccc2)CC1)c1c[nH]c2c(-c3cnco3)ncc(F)c12 [Example 145] | < 1 µM | < 0.0002 µM | – | – | CL, iv [1]: 1.4 ± 0.29 mL/min/kg; AUC(0-t) [1, 5]: 12000 ± 3800 ng·h/mL
O=C(C(=O)N1CCN(C(=O)c2ccccc2)CC1)c1c[nH]c2c(-n3ccnn3)ncc(F)c12 [Example 216] | < 1 µM | < 0.0002 µM | – | Low (0-0.100) | AUC(0-t) [1, 5]: 32000 ± 12000 ng·h/mL
Cc1ncn(-c2ncc(F)c3c(C(=O)C(=O)N4CCN(C(=O)c5ccccc5)CC4)c[nH]c23)n1 [Example 306] | < 1 µM | < 0.0002 µM | – | Low (0-0.100) | clearance [1]: 0.39 ± 0.07 mL/min/kg; AUC(0-t) [1, 5]: 160000 ± 11000 ng·h/mL
COc1cnc(-n2cnc(C)n2)c2[nH]cc(C(=O)C(=O)N3CCN(C(=O)c4ccccc4)CC3)c12 [Example 316] | < 1 µM | < 0.0002 µM | – | – | AUC(0-t) [1]: 52000 ± 12000 ng·h/mL
CCc1ncn(-c2ncc(OC)c3c(C(=O)C(=O)N4CCN(C(=O)c5ccccc5)CC4)c[nH]c23)n1 [Example 321] | < 1 µM | < 0.0002 µM | Yes | Low (0-0.100) | –
COCc1ncn(-c2ncc(OC)c3c(C(=O)C(=O)N4CCN(C(=O)c5ccccc5)[C@H](C)C4)c[nH]c23)n1 [Example 324] | – | < 0.0002 µM | Yes | Low (0-0.100) | EC50 (HIV-1; [8]): < 1 µM
COc1cnc(-n2cc(C)nn2)c2[nH]cc(C(=O)C(=O)N3CCN(C(=O)c4ccccc4)CC3)c12 [Example 325] | < 1 µM | < 0.0002 µM | Yes | Low (0-0.100) | –
COc1cnc(-n2ncc(C)n2)c2[nH]cc(C(=O)C(=O)N3CCN(C(=O)c4ccccc4)CC3)c12 [Example 327] | < 1 µM | – | – | – | EC50 (HIV-1; [9]): 0.0002 to 1 µM; CC50 > 100 uM (HeLa cells; [10]): Yes; HLM predicted human clearance class [2, 11]: Low (0-0.100)
COc1cnc(-n2ncc(C)n2)c2[nH]cc(C(=O)C(=O)N3CCN(C(=O)c4ccccc4)[C@H](C)C3)c12 [Example 328] | – | – | – | – | EC50 (HIV-1; [8]): < 1 µM; EC50 (HIV-1; [9]): < 0.0002 µM; CC50 > 100 uM (HeLa cells; [10]): Yes; HLM predicted human clearance class [2, 11]: Low (0-0.100)
COc1cnc(-c2nc(C)n[nH]2)c2[nH]cc(C(=O)C(=O)N3CCN(C(=O)c4ccccc4)CC3)c12 [Example 342] | < 1 µM | < 0.0002 µM | Yes | Low (0-0.100) | –
Cc1ccn(-c2ccnc3c(C(=O)C(=O)N4CCN(C(=O)c5ccccc5)[C@H](C)C4)c[nH]c23)n1 [Example 356] | – | 0.0002 to 1 µM | Yes | Low (0-0.100) | EC50 (HIV-1; Human immunodeficiency virus 1, HeLa-CD4/CCR5, 72 h, read-out: EC50 Group from Table 1, HeLa CD4 CCR5 cells, luciferase reporter virus, harvested 72 h after infection): < 1 µM
